{"source": "patent US20240307374A1", "about": "“FORMULATION OF FURIN INHIBITOR FOR INHALATION” (BP ASSET V, INC., priority 2021, published 2024)", "type_in_all_cases": "physicochemical", "key": {"[1]": {"experiment": "DVS (dynamic vapor sorption) moisture uptake", "conditions": "for Moisture Uptake (DVS): 25° C.; for form change after DVS test (XRPD): XRPD before and after DVS", "experimental": "(FIG. 5). Sample weight decreased rapidly when humidity decreased from 10% to 0%, which might be caused by loss of crystalline water.\nDVS was measured via a SMS (Surface Measurement Systems) DVS Intrinsic."}, "[2]": {"experiment": "Grinding stability", "conditions": "~30 mg ground manually in a mortar for about 5 minutes"}, "[3]": {"experiment": "Equilibrium solubility in pH buffers (3.0-8.0), 20% captisol and water", "conditions": "24 hrs; for S: solubility: RT", "experimental": "Additional solids were added into the sample to generate suspension if clear solution obtained. The suspension was equilibrated via stirring (1000 rpm). The suspension was centrifuged to obtain precipitate and supernatants.\nSolubility and pH were tested for the supernatants after filtration, and isolated precipitate was tested by XRPD.\n(§1) • 1. pH=3.0 buffer (50 mM HCl+KCl): Weigh 365.39 mg KCl into a 100 mL volumetric flask (VF), and add 0.1 mL 1M HCl into the VF, and dilute to volume with water. • 2. pH=4.0 buffer (50 mM citrate): Weigh 56.74 mg citric acid and 60.18 mg trisodium citrate into a 10 mL volumetric flask, and dilute to volume with water. • 3. pH=5.0 buffer (50 mM citrate) Weigh 11.12 mg citric acid and 95.38 mg trisodium citrate into a 10 mL volumetric flask, and dilute to volume with water. • 4. pH=6.0 buffer (50 mM citrate) Weigh 11.04 mg citric acid and 130.2 mg trisodium citrate into a 10 mL volumetric flask, and dilute to volume with water. • 5. pH=6.0 buffer (50 mM phosphate) Weigh 8.7 mg Na2HPO4 and 52.6 mg NaH2PO4 into a 10 mL volumetric flask, and dilute to volume with water. • 6. pH=7.0 buffer (50 mM phosphate) Weigh 23.47 mg Na2HPO4 and 43.34 mg NaH2PO4into a 10 mL volumetric flask, and dilute to volume with water. • 7. pH=8.0 buffer (50 mM phosphate) Weigh 31.64 mg Na2HPO4 and 67.18 mg NaH2PO4into a 10 mL volumetric flask, and dilute to volume with water."}, "[4]": {"experiment": "Equilibrium solubility in pH buffers (pH 4.0-6.0) with pH adjustment", "conditions": "for S: solubility: with pH adjustment", "experimental": "In details, ˜5 mg of solids were suspended into 1 mL of each medium with dosing conc. at ˜5 mg/mL. Additional solids were added into the sample to generate suspension if clear solution was obtained. The suspension was equilibrated via stirring (1000 rpm) for 24 hours. The pH of the suspension was adjusted when the final pH shifted above 0.3, and the samples were stirred for another 1.5 hours after pH adjustment. The suspension was centrifuged to obtain precipitate and supernatants. Solubility, purity and pH were tested for the supernatants after filtration, and isolated precipitate was tested by XRPD.\nas §1"}, "[5]": {"experiment": "Approximate solubility at RT", "conditions": "CHCl3, RT, solvent for freeform isolation", "experimental": "Four freeform isolation experiments were performed in different solvent with different acids. Solids were obtained in DCM/HCl and CHCl3/HCl system.\nApproximately 2 mg solids were added into a 3-mL glass vial. Solvents in the following table were then added stepwise (50-50-200-700[…] for each step) into the vials and stirred until the solids were dissolved or a total volume of 1 mL was reached. The solubility results were used to guide the solvent selection in polymorph formation."}, "[6]": {"conditions": "pH = 3.0 buffer (50 mM HCl + KCl)"}, "[7]": {"conditions": "pH = 4.0 buffer (50 mM citrate)"}, "[8]": {"conditions": "pH = 5.0 buffer (50 mM citrate)"}, "[9]": {"conditions": "pH = 6.0 buffer (50 mM citrate)"}, "[10]": {"conditions": "pH = 7.0 buffer (50 mM phosphate)"}, "[11]": {"conditions": "pH = 8.0 buffer (50 mM phosphate)"}, "[12]": {"conditions": "pH = 6.0 buffer (50 mM phosphate)"}}, "note": "Where a name gives a salt, the structure may show the parent alone. Marks after values point to notes of the source that are not given here.", "data": [{"smiles": "CC(=O)NCC1CCN(Cc2cc(Oc3ccc(N4CCN(CCC(=O)O)CC4)nc3)nc(-c3cc(Cl)cc(Cl)c3)c2)CC1", "note": "[HCl salt Type F]", "values": [{"measurement": "Moisture Uptake (DVS)", "setting": "[1]; from 20% RH to 80% RH", "value": "1.4 (from 20% RH to 80% RH)"}, {"measurement": "form change after DVS test (XRPD)", "setting": "[1]", "value": "No form change"}, {"measurement": "crystallinity after grinding (XRPD)", "setting": "[2]", "value": "decreased after grinding"}, {"measurement": "solubility at 24 h", "setting": "[3]; 50 mM pH buffers, pH 3.0-8.0, 21 °C, pH 3, aqueous buffer, thermodynamic from solid, 50 mM pH buffers pH 3.0-8.0, RT, read-out: solubility in pH buffers (overall bound)", "value": "< 8000", "unit": "µg/mL"}, {"measurement": "pH of supernatant (final pH)", "setting": "[3]; 20% Captisol (pH = 5.0, w/v)", "value": 3.5}, {"measurement": "S: solubility", "setting": "[3]; 20% Captisol (pH = 5.0, w/v)", "value": ">48.0^1 mg/mL"}, {"measurement": "FC: form change (XRPD of precipitate)", "setting": "[3]; H2O", "value": "5 (1/2/3/4/5: new Form 1/2/3/4/5)"}, {"measurement": "pH of supernatant (final pH)", "setting": "[3]; H2O", "value": 2.4}, {"measurement": "S: solubility", "setting": "[3]; H2O", "value": 4.24, "unit": "mg/mL"}, {"measurement": "FC: form change (XRPD of precipitate)", "setting": "[3]; [6]", "value": "5 (1/2/3/4/5: new Form 1/2/3/4/5)"}, {"measurement": "pH of supernatant (final pH)", "setting": "[3]; [6]", "value": 2.7}, {"measurement": "S: solubility", "setting": "[3]; [6]", "value": 2.77, "unit": "mg/mL"}, {"measurement": "FC: form change (XRPD of precipitate)", "setting": "[3]; [7]", "value": "Low (Low: low crystallinity)"}, {"measurement": "pH of supernatant (final pH)", "setting": "[3]; [7]", "value": 3.9}, {"measurement": "S: solubility", "setting": "[3]; [7]", "value": 1.12, "unit": "mg/mL"}, {"measurement": "FC: form change (XRPD of precipitate)", "setting": "[3]; [8]", "value": "Low (Low: low crystallinity)"}, {"measurement": "pH of supernatant (final pH)", "setting": "[3]; [8]", "value": 5.0}, {"measurement": "S: solubility", "setting": "[3]; [8]", "value": 2.64, "unit": "mg/mL"}, {"measurement": "FC: form change (XRPD of precipitate)", "setting": "[3]; [9]", "value": "A^"}, {"measurement": "pH of supernatant (final pH)", "setting": "[3]; [9]", "value": 5.8}, {"measurement": "S: solubility", "setting": "[3]; [9]", "value": 0.62, "unit": "mg/mL"}, {"measurement": "FC: form change (XRPD of precipitate)", "setting": "[3]; [10]", "value": "A^+"}, {"measurement": "pH of supernatant (final pH)", "setting": "[3]; [10]", "value": 6.5}, {"measurement": "S: solubility", "setting": "[3]; [10]", "value": 0.06, "unit": "mg/mL"}, {"measurement": "FC: form change (XRPD of precipitate)", "setting": "[3]; [11]", "value": "A^+"}, {"measurement": "pH of supernatant (final pH)", "setting": "[3]; [11]", "value": 7.2}, {"measurement": "S: solubility", "setting": "[3]; [11]", "value": 0.02, "unit": "mg/mL"}, {"measurement": "solubility at 24 h", "setting": "[4]; 50 mM pH 4.0-6.0 buffers, pH 4, aqueous buffer, thermodynamic from solid, 50 mM pH 4.0-6.0 buffers with pH adjustment, RT, read-out: solubility in pH buffers (overall bound)", "value": "< 6800", "unit": "µg/mL"}, {"measurement": "Area % (purity of supernatant)", "setting": "[4]; [7]", "value": 99.0, "unit": "Area %"}, {"measurement": "FC: form change (XRPD of precipitate)", "setting": "[4]; [7]", "value": "Low (Low; low crystallinity)"}, {"measurement": "pH (final, after adjustment where adjusted)", "setting": "[4]; [7]", "value": 4.0}, {"measurement": "S: solubility", "setting": "[4]; pH = 4.0 buffer (50 mM citrate), RT", "value": 1520, "unit": "µg/mL"}, {"measurement": "Area % (purity of supernatant)", "setting": "[4]; [8]", "value": 99.6, "unit": "Area %"}, {"measurement": "FC: form change (XRPD of precipitate)", "setting": "[4]; [8]", "value": "Low (Low; low crystallinity)"}, {"measurement": "pH (final, after adjustment where adjusted)", "setting": "[4]; [8]", "value": 4.9}, {"measurement": "S: solubility", "setting": "[4]; pH = 5.0 buffer (50 mM citrate), RT", "value": 2320, "unit": "µg/mL"}, {"measurement": "Area % (purity of supernatant)", "setting": "[4]; [9]", "value": 99.0, "unit": "Area %"}, {"measurement": "FC: form change (XRPD of precipitate)", "setting": "[4]; [9]", "value": "8 (3/4/6/7/8: new Form 3/4/6/7/8)"}, {"measurement": "pH (final, after adjustment where adjusted)", "setting": "[4]; [9]", "value": 5.7}, {"measurement": "S: solubility", "setting": "[4]; pH = 6.0 buffer (50 mM citrate), RT", "value": 1150, "unit": "µg/mL"}, {"measurement": "Area % (purity of supernatant)", "setting": "[4]; [12]", "value": 98.9, "unit": "Area %"}, {"measurement": "FC: form change (XRPD of precipitate)", "setting": "[4]; [12]", "value": "Low (Low; low crystallinity)"}, {"measurement": "pH (final, after adjustment where adjusted)", "setting": "[4]; [12]", "value": "5.9*"}, {"measurement": "pH before adjustment (in brackets)", "setting": "[4]; pH = 6.0 buffer (50 mM phosphate), 24 hours", "value": "(3.9)"}, {"measurement": "S: solubility", "setting": "[4]; pH = 6.0 buffer (50 mM phosphate), RT", "value": 430, "unit": "µg/mL"}]}, {"smiles": "CC(=O)NCC1CCN(Cc2cc(Oc3ccc(N4CCN(CCC(=O)O)CC4)nc3)nc(-c3cc(Cl)cc(Cl)c3)c2)CC1", "note": "[starting material]", "values": [{"measurement": "Moisture Uptake (DVS)", "setting": "[1]; from 10% RH to 80% RH", "value": 0.7, "unit": "%"}, {"measurement": "form change after DVS test (XRPD)", "setting": "[1]", "value": "no form change"}, {"measurement": "solubility", "setting": "[5]", "value": "S > 50.5 mg/mL"}]}]}
